Experimental data from ChEMBL document CHEMBL1130673, “Hydroindenic-guanylhydrazones. Synthesis and evaluation as inotropic agents” (1998).

Legend:
[1] = species on record: Cavia porcellus; assay: Compound was measured for inotropic activity against isolated guinea pig atria at concentration 3 x 10e-4; format: functional
[2] = species on record: Cavia porcellus; assay: Compound was measured for inotropic activity against isolated guinea pig atria at concentration 3 x 10e-4; Negative inotropic activity; format: functional

| Compound | Reduction [1] [%] | Activity [2] |
| --- | --- | --- |
| COC(=O)/C=C/[C@H]1CC[C@]2(O)CC3(CC[C@]12C)SCCCS3 | 85 | – |
| CC(=O)OC[C@H]1CC[C@]2(O)CC3(CC[C@]12C)SCCCS3 | 56 | – |
| C[C@]12CCC3(C[C@@]1(O)CCC2/C=N/N=C(N)N)OCCO3 (stereo not given in full) | – | Negative inotropic activity |
| C[C@]12CC/C(=N\N=C(N)N)C[C@@]1(O)CCC2/C=N/N=C(N)N (stereo not given in full) | – | Negative inotropic activity |
| C[C@]12CCC(OC(c3ccccc3)(c3ccccc3)c3ccccc3)C[C@@]1(O)CC[C@@H]2CO (stereo not given in full) | – | Negative inotropic activity |
